Consider 6 molecules from publication PMC4503439, “Dose-Independent ADME Properties and Tentative Identification of Metabolites of α-Mangostin from Garcinia mangostana in Mice by Automated Microsampling and UPLC-MS/MS Methods” (PLoS ONE, 2015).

This data set in a line: Tentative identification of metabolites from α-MG by UPLC-MS/MS. The format is in vivo. The conditions noted are these: mice after intravenous and oral α-MG; S9 fractions after 30-min incubation. An excerpt:
Probable metabolites of α-MG were identified using the simultaneous full scan MS, MRM and MS/MS modes in a Waters UPLC-XEVO TQ system (Waters Corporation, Milford, USA) to confirm the structures of any metabolites. […] Structural elucidation of the metabolites was based on the fragmentation patterns of parent ion from the MS/MS mode at a collision energy of 10 to 20 eV generating daughter ions. The mass transitions for α-MG was m/z 411.21 → 354.85 (collision energy of 20 eV and collision cell exit potential of 25 eV, respectively). The unknown masses were further analyzed in MS/MS (daughter scan) mode with the electrospray ionization interface used to generate positive and negative ions at a capillary voltage of 3.0 kV, source temperature of 350°C and desolvation gas temperature of 650°C. The MRM methods for identification of possible metabolites generated by phase I and/or II reactions were included.
These compounds were separated on a reversed-phase C18 column (XSELECT CSH, 2.1 mm × 100 mm i.d., 1.7-μm particle size; Waters, Ireland) with a flow rate of 0.35 mL/min. The mobile phase composition was started at 95: 5 (v/v) of distilled water containing 0.1% formic acid (A) and acetonitrile (B) and gradually changed to 35: 65 (v/v) for 30 min, and then switched back to 95: 5 (v/v) for 40 min.
As for `COc1c(O)c(O)c2oc3cc(O)c(CC=C(C)C)c(O)c3c(=O)c2c1CC=C(C)C` [M11], the “Source (samples in which detected)” value was “liver, small intestine, feces”.

Turning to `COc1c(O)cc2oc3cc4c(c(O)c3c(=O)c2c1CC=C(C)C)C=CC(C)(C)O4` [M7], the “Source (samples in which detected)” value is on record as “urine, feces, liver, small intestine”.

As to `COc1c(O)cc2oc3c(O)c(O)c(CC=C(C)C)c(O)c3c(=O)c2c1CC=C(C)C` [M10], the “Source (samples in which detected)” value is listed as “liver, small intestine, feces”.

Turning to `COc1c(O)cc2oc3cc(O)c4c(c3c(=O)c2c1CC=C(C)C)OC(C)(C)C=C4` [M8], the “Source (samples in which detected)” value is listed as “urine, feces, liver, small intestine”.

Consider `COc1c(O)cc2oc3cc(O)c(CC4OC4(C)C)c(O)c3c(=O)c2c1CC=C(C)C` (stereo not drawn) [M13], for which the “Source (samples in which detected)” value was “liver, small intestine, feces”.

For the molecule `COc1c(O)cc2oc3cc(O)c(CC=C(C)C)c(O)c3c(=O)c2c1CC1OC1(C)C` (stereo not drawn) [M12], the “Source (samples in which detected)” value is reported as “liver, small intestine, feces”.
